Test results reported in ChEMBL document CHEMBL4196074, “Metallomics for Alzheimer's disease treatment: Use of new generation of chelators combining metal-cation binding and transport properties” (Eur J Med Chem, 2018).
Activity calls are given as the source filed them. Unless noted, the calls are words filed in the database; no cut-off is given here.

What was measured:
SH-SY5Y [1] = experiment: Inhibition of Fe3+-mediated ROS generation in human SH-SY5Y cells expressing APPswe mutant at 1 uM after 72 hrs by DCF-DA dye-based fluorescence spectroscopic analysis; type: cell-based
SH-SY5Y [2] = experiment: Antiproliferative activity against human SH-SY5Y cells at 1 uM after 24 to 72 hrs by WST1 assay; type: cell-based
[3] = Metal chelating activity assessed as compound-Zn2+ complex formation by UV-vis spectrophotometric analysis
SH-SY5Y [4] = experiment: Inhibition of Cu2+-mediated amyloid beta (1 to 42 residues) production in human SH-SY5Y cells expressing APPswe mutant at 1 uM after 72 hrs by ELISA based spectrophotometric analysis; type: cell-based
[5] = molecular target: Acetylcholinesterase (Homo sapiens) (UniProt P22303); experiment: Inhibition of acetylcholinesterase (unknown origin) at 1 uM using acetylthiocholine chloride as substrate measured for 5 to 40 mins
Chain of Acetylcholinesterase (Homo sapiens) (P22303 whole entry): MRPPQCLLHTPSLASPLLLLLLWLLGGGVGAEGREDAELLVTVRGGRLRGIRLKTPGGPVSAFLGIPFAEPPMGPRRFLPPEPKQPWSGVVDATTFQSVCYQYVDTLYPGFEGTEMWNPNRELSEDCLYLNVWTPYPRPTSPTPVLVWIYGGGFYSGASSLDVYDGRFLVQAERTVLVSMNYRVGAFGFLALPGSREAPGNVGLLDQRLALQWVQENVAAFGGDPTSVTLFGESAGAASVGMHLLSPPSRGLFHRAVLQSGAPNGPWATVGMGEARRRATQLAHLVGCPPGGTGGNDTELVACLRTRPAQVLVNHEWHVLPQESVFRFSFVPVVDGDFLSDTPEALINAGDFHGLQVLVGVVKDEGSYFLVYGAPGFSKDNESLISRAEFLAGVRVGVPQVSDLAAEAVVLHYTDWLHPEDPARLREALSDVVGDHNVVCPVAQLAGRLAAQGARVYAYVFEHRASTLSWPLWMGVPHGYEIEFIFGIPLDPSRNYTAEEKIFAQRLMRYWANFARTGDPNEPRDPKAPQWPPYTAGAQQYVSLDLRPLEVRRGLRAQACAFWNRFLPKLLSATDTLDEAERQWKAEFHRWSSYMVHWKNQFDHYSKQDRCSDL

SH-SY5Y [6] = experiment: Inhibition of Cu2+-mediated ROS generation in human SH-SY5Y cells expressing APPswe mutant at 1 uM after 72 hrs by DCF-DA dye-based fluorescence spectroscopic analysis; type: cell-based
SH-SY5Y [7] = experiment: Neuroprotective activity against amyloid beta (1 to 42 residues) induced cell death in human SH-SY5Y cells expressing APPswe mutant at 1 uM after 48 hrs by WST1 assay; type: functional, cell-based
[8] = Metal chelating activity assessed as compound-Cu2+ complex formation by UV-vis spectrophotometric analysis
[9] = Metal chelating activity assessed as compound-Fe3+ complex formation by UV-vis spectrophotometric analysis
SH-SY5Y [10] = experiment: Inhibition of Fe3+-mediated amyloid beta (1 to 42 residues) production in human SH-SY5Y cells expressing APPswe mutant at 1 uM after 72 hrs by ELISA based spectrophotometric analysis; type: cell-based
[11] = Effective permeability of the compound at 10^-5 mol/L after 5 hrs by UV-based PAMPA; type: ADME; settings: read-out: Peff
SH-SY5Y [12] = experiment: Antiproliferative activity against human SH-SY5Y cells at 1 uM after 48 hrs by WST1 assay; type: cell-based
SH-SY5Y [13] = experiment: Inhibition of Zn2+-mediated amyloid beta (1 to 42 residues) production in human SH-SY5Y cells expressing APPswe mutant at 1 uM after 72 hrs by ELISA based spectrophotometric analysis; type: cell-based
SH-SY5Y [14] = experiment: Inhibition of Zn2+-mediated ROS generation in human SH-SY5Y cells expressing APPswe mutant at 1 uM after 72 hrs by DCF-DA dye-based fluorescence spectroscopic analysis; type: cell-based
SH-SY5Y [15] = experiment: Inhibition of Cu2+-induced toxicity in human SH-SY5Y cells expressing APPswe mutant assessed as increase in cell viability at 1 uM after 72 hrs by WST1 assay; type: cell-based
SH-SY5Y [16] = experiment: Inhibition of Cu2+-induced caspase-3 activity in human SH-SY5Y cells expressing APPswe mutant at 1 uM after 72 hrs by AcDEVD substrate-based spectrophotometric analysis; type: cell-based

Structure (SMILES) | inhibition (SH-SY5Y [1]) | Activity (SH-SY5Y [2]) | Activity [3] | inhibition (SH-SY5Y [4]) | inhibition [5] | inhibition (SH-SY5Y [6]) | Activity (SH-SY5Y [7]) | Activity [8] | Activity [9] | inhibition (SH-SY5Y [10]) | Papp at 5 h, 10 µM [11] | Activity (SH-SY5Y [12]) | inhibition (SH-SY5Y [13]) | inhibition (SH-SY5Y [14]) | inhibition (SH-SY5Y [15]) | inhibition (SH-SY5Y [16])
COc1ccc(Nc2c(N/N=C/c3ccc4ccccc4n3)c(=O)c2=O)cc1 | inactive | Non-Toxic | inactive | inactive | inactive | inactive | inactive | Active | Active | inactive |  |  |  |  |  | 
Cc1ncc(CO)c(/C=N/Nc2nncc3ccccc23)c1O |  |  | inactive | inactive |  |  | inactive | Active | Active | inactive | 7.8 ×10⁻⁶ cm/s | Toxic |  |  |  | 
Oc1c(I)cc(Cl)c2cccnc12 |  |  |  | Active |  |  |  |  |  | Active |  |  | Active |  |  | 
CC(C)(C)c1ccc(O)c(/C=N/Nc2nncc3ccccc23)c1 |  |  | Active | inactive |  |  | inactive | Active | Active | inactive |  | Toxic | inactive |  |  | 
c1ccc(C(=NNc2nncc3ccccc23)c2ccccn2)nc1 |  |  | Active | inactive |  |  | inactive | Active | Active | inactive |  | Toxic | inactive |  |  | 
CCN1/C(=C/c2c(N/N=C/c3ccc4ccccc4n3)c(=O)c2=O)Sc2ccccc21 | inactive | Non-Toxic | Active | inactive | inactive | inactive | inactive | Active | Active | inactive |  |  | inactive | inactive |  | 
CCN1/C(=C/c2c(N/N=C/c3cccc(OC)c3O)c(=O)c2=O)Sc2ccccc21 | inactive | Non-Toxic | inactive | inactive | inactive | inactive | inactive | Active | Active | inactive |  |  |  |  |  | 
Cc1ncc(CO)c(/C=N/NC(=O)c2ccc(NC(=O)CC[C@@H](C)[C@H]3CC[C@H]4[C@@H]5[C@H](O)C[C@@H]6C[C@H](O)CC[C@]6(C)[C@H]5C[C@H](O)[C@]34C)cc2)c1O (stereo in doubt) | inactive | Non-Toxic | Active | inactive | inactive | inactive | inactive | Active | Active | inactive | 2.2 ×10⁻⁶ cm/s |  | inactive | inactive |  | 
CCN1/C(=C/c2c(N/N=C/c3c(CO)cnc(C)c3O)c(=O)c2=O)Sc2ccccc21 | inactive | Non-Toxic | inactive | inactive | inactive | inactive | inactive | Active | Active | inactive | 2.8 ×10⁻⁶ cm/s |  |  |  |  | 
COc1cccc(/C=N/NC(=O)CC[C@@H](C)[C@H]2CC[C@H]3[C@@H]4[C@H](O)C[C@@H]5C[C@H](O)CC[C@]5(C)[C@H]4C[C@H](O)[C@]23C)c1O |  | Non-Toxic | inactive | inactive | inactive |  | Active | Active | inactive |  |  |  |  |  | Active | Active
C[C@H](CCC(=O)Nc1ccc(C(=O)N/N=C/c2ccc(C(C)(C)C)cc2O)cc1)[C@H]1CC[C@H]2[C@@H]3[C@H](O)C[C@@H]4C[C@H](O)CC[C@]4(C)[C@H]3C[C@H](O)[C@]12C (stereo in doubt) | inactive | Non-Toxic | Active | inactive | inactive | inactive | inactive | Active | Active | inactive |  |  | inactive | inactive |  | 
CCN1/C(=C/c2c(N/N=C/c3cc(C(C)(C)C)ccc3O)c(=O)c2=O)Sc2ccccc21 | inactive | Non-Toxic | inactive | inactive | inactive | inactive | inactive | Active | Active | inactive |  |  |  |  |  | 
COc1ccc(Nc2c(N/N=C/c3cccc(OC)c3O)c(=O)c2=O)cc1 | inactive | Non-Toxic | inactive | inactive | inactive | inactive | inactive | Active | Active | inactive |  |  |  |  |  | 
C[C@H](CCC(=O)Nc1ccc(C(=O)NN=C(c2ccccn2)c2ccccn2)cc1)[C@H]1CC[C@H]2[C@@H]3[C@H](O)C[C@@H]4C[C@H](O)CC[C@]4(C)[C@H]3C[C@H](O)[C@]12C | inactive | Non-Toxic | inactive | inactive | inactive | inactive | inactive | Active | Active | inactive |  |  |  |  |  | 
C(=N\Nc1nncc2ccccc12)/c1ccc2ccccc2n1 |  |  | inactive | inactive |  |  | inactive | Active | inactive |  |  | Toxic |  |  |  | 
C[C@H](CCC(=O)Nc1ccc(C(=O)N/N=C/c2ccc3ccccc3n2)cc1)[C@H]1CC[C@H]2[C@@H]3[C@H](O)C[C@@H]4C[C@H](O)CC[C@]4(C)[C@H]3C[C@H](O)[C@]12C (stereo in doubt) | inactive | Non-Toxic | Active | inactive | inactive | inactive | inactive | Active | Active | inactive |  |  | inactive | inactive |  | 
COc1ccc(Nc2c(N/N=C/c3c(CO)cnc(C)c3O)c(=O)c2=O)cc1 | inactive | Non-Toxic | inactive | inactive | inactive | inactive | inactive | Active | Active | inactive | 1.6 ×10⁻⁶ cm/s |  |  |  |  | 
COc1cccc(/C=N/NC(=O)c2ccc(NC(=O)CC[C@@H](C)[C@H]3CC[C@H]4[C@@H]5[C@H](O)C[C@@H]6C[C@H](O)CC[C@]6(C)[C@H]5C[C@H](O)[C@]34C)cc2)c1O (stereo in doubt) | inactive | Non-Toxic | Active | inactive | inactive | inactive | inactive | Active | Active | inactive |  |  | inactive | inactive |  | 
COc1ccc(Nc2c(N/N=C/c3ccc(C(C)(C)C)cc3O)c(=O)c2=O)cc1 | inactive | Non-Toxic | inactive | inactive | inactive | inactive | inactive | Active | Active | inactive |  |  |  |  |  | 
COc1cccc(/C=N/Nc2nncc3ccccc23)c1O |  |  | Active | inactive |  |  | inactive | Active | Active | inactive |  | Toxic | inactive |  |  | 
